Source: US7906709B2, “Methods for breeding glyphosate resistant plants and compositions thereof” (priority 2006, dated 2011)

System: Wild-type Agrobacterium
Assay: Growth in M-9 media with glyphosate, wild-type
Assay type: cell-based, Agrobacterium tumefaciens
Settings: 48 hours
Procedure: The confirmed plasmid is transformed into Agrobacterium tumefaciens by “freeze thaw technique” using liquid nitrogen. The transformed Agrobacterium is grown in LB plated and maintained 28° C. for 72 h. Some colonies are grown in LB broth for 24 h and tested for the inserted EPSPS gene by PCR. The confirmed Agrobacterium is grown in 50 mL LB broth for 24 h. The Agrobacterium is centrifuged at 5000×g for 10 min, and the pellets are diluted with 2 mL 1.0 M CaCl2. At the same time, a wild-type Agrobacterium is also grown and extracted similar to the transformed Agrobacterium. The Agrobacterium solutions (10 μL) are grown in 50 mL media containing 1×M-9 salt media (SIGMA), 20 mM glucose, 2 mM MgSO4, and glyphosate at 0, 0.25, 0.5, 0.75, 1.0, 1.5, and 2 mM.
The growth (indicated by Optical Density 600 nm) is measured after 48 hours.

## O=C(O)CNCP(=O)(O)O [glyphosate, N-(phosphonomethyl) glycine]
Glyphosate 0.25 mM
  Growth, OD 600 nm: 0.236
  Growth, Percent: 37%
Glyphosate 0.50 mM
  Growth, OD 600 nm: 0.005
  Growth, Percent: 0.8%
Glyphosate 0.75 mM
  Growth, OD 600 nm: 0.005
  Growth, Percent: 0.8%
Glyphosate 1.00 mM
  Growth, OD 600 nm: 0.004
  Growth, Percent: 0.8%
Glyphosate 1.50 mM
  Growth, OD 600 nm: 0.004
  Growth, Percent: 0.8%
Glyphosate 2.00 mM
  Growth, OD 600 nm: 0.004
  Growth, Percent: 0.8%
